Reference: PubChem BioAssay (NCI)
Values joined by “and” are separate entries in the source; they are usually repeats but may differ in a detail not shown here. Equal values may be shown once.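 96-well plates; 48 h exposure; 5 concentrations. Endpoints by linear interpolation between flanking doses. Not reached: highest tested concentration assigned. GI50 is the concentration that inhibits growth by half. At the TGI there is no net growth.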

How the values were obtained:
Experiment in all cases: NCI anticancer screen, dose series, 48 h
ACHN renal = test system: ACHN renal
SK-MEL-2 melanoma = test system: SK-MEL-2 melanoma
RPMI-8226 leukemia = test system: RPMI-8226 leukemia
IGROV1 ovarian = test system: IGROV1 ovarian
SF-268 CNS = test system: SF-268 CNS
SF-539 CNS = test system: SF-539 CNS
SK-OV-3 ovarian = test system: SK-OV-3 ovarian
A498 renal = test system: A498 renal
EKVX NSCLC = test system: EKVX NSCLC
SW-620 colon = test system: SW-620 colon

| SMILES | TGI (ACHN renal) [µM] | TGI (SK-MEL-2 melanoma) [µM] | TGI (RPMI-8226 leukemia) | TGI (IGROV1 ovarian) [µM] | TGI (SF-268 CNS) | TGI (SF-539 CNS) | TGI (SK-OV-3 ovarian) | TGI (A498 renal) [µM] | TGI (EKVX NSCLC) | TGI (SW-620 colon) | GI50 (ACHN renal) [µM] | GI50 (SK-MEL-2 melanoma) [µM] | GI50 (RPMI-8226 leukemia) [µM] | GI50 (IGROV1 ovarian) [µM] | GI50 (SF-268 CNS) [µM] | GI50 (SF-539 CNS) [µM] | GI50 (SK-OV-3 ovarian) [µM] | GI50 (A498 renal) [µM] | GI50 (EKVX NSCLC) [µM] | GI50 (SW-620 colon) [µM] |
| --- | --- | --- | --- | --- | --- | --- | --- | --- | --- | --- | --- | --- | --- | --- | --- | --- | --- | --- | --- | --- |
| COc1ccc(OC)c(N2CC(N)C2=O)c1 (centres undefined) | > 100 | > 100 | > 100 µM | > 100 | > 100 µM | > 100 µM | > 100 µM | > 100 | > 100 µM | > 100 µM |  |  |  |  |  |  |  |  |  |  |
| O=C1CCCCN1c1ccccc1C#C/C=C\C#Cc1ccccc1C(F)(F)F | 14.7 | > 50 | 6.71 µM | 3.63 | > 50 µM | 4.43 µM | > 50 µM | 28.4 | > 50 µM | 46 µM | 2.67 | 7.26 | 1.9 | 1.12 | 3.81 | 1.44 | > 50 | 2.25 | 4.08 | 2.04 |
| Cc1cccc(C)c1NC(=O)CCCC(=O)C1/C(=N/NC(=O)CC#N)CCC/C1=N\NC(=O)CC#N (centres undefined) | > 100 | > 100 | > 100 µM | > 100 | > 100 µM | > 100 µM | > 100 µM | > 100 | > 100 µM | > 100 µM |  |  |  |  |  |  |  |  |  |  |
| CN1CC[C@@H](NC(=O)Nc2ccc(C#N)cc2)C[C@@H]1c1nc2ccccc2[nH]1 | > 100 | > 100 | > 100 µM | > 100 | > 100 µM | > 100 µM | > 100 µM | > 65.7 | > 100 µM | > 100 µM | > 86.5 | > 100 | > 100 | > 100 | > 100 | > 100 | > 100 | > 27.4 | > 100 | > 100 |
| CN(C)CC1CC/C(=C\c2ccc(O)cc2)C1=O (centres undefined) | 10.7 | 21.1 | 4 µM | 24.1 | 23.1 µM | 17.1 µM | 32.3 µM | 21.3 | 14.4 µM | 5.33 µM |  |  |  |  |  |  |  |  |  |  |
| Cc1ccc(-n2c3nc(=O)[nH]c(=O)c-3cc3cc([N+](=O)[O-])ccc32)cc1 | > 100 | > 100 | 21.3 µM |  | 54.8 µM | 40.8 µM | > 100 µM | 45.2 | 67 µM | > 100 µM | 38.1 | 44.2 | 3.95 |  | 17.3 | 13.9 | 37.1 | 20.5 | 33.1 | 4.71 |
| CC1=C2C(=C[C@@](C)(CO)[C@@H]2O)C(=O)[C@](C)(O)C12CC2 | 0.0878 | 0.0297 | 6.09 µM and 12.3 µM | 0.0583 | 0.0192 µM and 0.106 µM | 0.0181 µM and 0.0175 µM | 0.0302 µM and 0.0394 µM | 0.0288 | 0.0678 µM and 0.0153 µM | 0.074 µM and 0.129 µM | 0.0189 |  | 1.15 |  |  |  |  |  |  |  |
| O=S(=O)(N/N=C/c1cccc(/C=N/NS(=O)(=O)c2ccccc2)c1)c1ccccc1 | > 100 | > 100 | > 100 µM | > 100 | > 100 µM | > 100 µM | > 100 µM | > 100 | > 100 µM |  |  |  |  |  |  |  |  |  |  |  |
